Experimental data: patent publication US20240041971A1, “A PROCESS OF PREPARATION OF FLOUR MIX AND ITS USE FOR THE TREATMENT OF DIABETES” (priority 2020, published 2024)

Tests used:
Assay type in all cases: in vivo, Rats
[1] = system: Streptozotocin-nicotinamide induced Type-2 diabetes (T2DM); assay: Streptozotocin-nicotinamide induced Type-2 diabetes: Glycosylated Haemoglobin (HbA1c); settings: 5 mg/kg oral gavage
Procedure: (§1) The objective of the study is to evaluate pharmaceutical preparation in Type-2 diabetes mellitus (T2DM) and to compare efficacy of these in comparison to standard hypoglycemic agent pioglitazone.
(§2) Experimental model: Streptozotocin-nicotinamide induced Type-2 diabetes (T2DM): Single intraperitoneal injection of nicotinamide and streptozotocin was administered. Dose: STZ (45 mg/kg for rats)+Nicotinamide (230 mg/kg for rats) for T2DM pharmaceutical preparation (45.90 & 180 mg/kg). Route: STZ & Nicotinamide were administered intraperitoneally (i.p.). Pharmaceutical preparation & pioglitazone were administered per orally (oral gavage). Volume Administered: Rat—5 mL/kg Animals: Rats of Wistar strain weighing from 150-200 g of either sex used for the study. The animals were housed under optimal laboratory conditions, maintained on a natural (12 h) light and (12 h) dark cycle and had free access to food and water ad libitum. Animals were acclimatized to laboratory conditions before the tests. Study Design: Animals were divided into 6 groups of 5-8 animals in each group: • a) Group I: Control or vehicle treated group • b) Group II: Type 2 diabetic group • c) Group III: Diabetic animals+pharmaceutical preparation (45 mg/kg) • d) Group IV: Diabetic animals+pharmaceutical preparation (90 mg/kg) • e) Group V: Diabetic animals +pharmaceutical preparation (180 mg/kg) • f) Group VI: Diabetic animals+Pioglitazone (5 mg/kg)
(§3) Pharmaceutical preparation was administered after confirmation of diabetes for 28 days.
(§4) Parameters to be evaluated: The following parameters were evaluated after confirmation of diabetes on day 1, 7, 14, 21 and 28 days. • a) Body weight, water and food intake was monitored. • b) Blood Glucose Level: Glucose was estimated using diagnostic kits by GOD-POD method and the experiment was conducted following the manufacturer's instructions. • c) Estimation of Glycosylated Haemoglobin (HbA1c): HbA1c is a good indicator of protein glycosylation. Excess of glucose conjugates with proteins to form glycosylated moieties. It was estimated by ion-resin method using commercial kits.

[2] = system: Streptozotocin-nicotinamide induced Type-2 diabetes (T2DM); assay: Streptozotocin-nicotinamide induced Type-2 diabetes: plasma glucose; settings: 5 mg/kg oral gavage
Procedure: as §1, §2, §3
as §4, with “[…])” for “following parameters were evaluated after confirmation of diabetes on day 1, 7, 14, 21 and 28 days. • a)”

[3] = system: Streptozotocin (STZ) induced type 1 diabetes (T1DM); assay: Oral Glucose Tolerance Test (OGTT) in STZ induced type 1 diabetes; settings: 10 IU/kg subcutaneous
Procedure: The objective of the study is to evaluate the pharmaceutical preparation in Type-1 Diabetes Mellitus (T1DM) and to compare the efficacy in comparison to standard hypoglycemic agents as insulin. Experimental model: Streptozotocin (STZ) induced type 1 diabetes (T1DM). Dose: STZ (45 mg/kg for rats) for T1DM Route: STZ was administered intraperitoneally (i.p.). Pharmaceutical preparation was administered peroral (p.o.) in three doses. Animals: Rats of Wistar or Sprague Dawley strain weighing from 150-200 g of either sex. The animals were housed under optimal laboratory conditions, maintained on a natural (12 h) light and (12 h) dark cycle and have free access to food and water ad libitum. Animals were acclimatized to laboratory conditions before the tests. Study Design: Animals were divided into 8 groups of 10 animals in each group. • a) Group I: Control or vehicle treated group • b) Group II: Type 1 diabetic group • c) Group III: pharmaceutical preparation (90 mg/kg)+Diabetic animals • d) Group IV: pharmaceutical preparation (180 mg/kg)+Diabetic animals • e) Group V: pharmaceutical preparation (360 mg/kg)+Diabetic animals • f) Group VI: Satcol (60 mg/kg)+Diabetic animals • g) Group VII: pharmaceutical preparation (90 mg/kg)+Insulin (10IU)+Diabetic animals • h) Group VIII: Insulin (10IU)+Diabetic animals Drugs were administered for 28 days after confirmation of diabetes. Parameters to be evaluated: The following parameters were evaluated at confirmation of diabetes and after 28 days of treatment. • a) Body weight, water and food intake was monitored weekly. • b) Blood Glucose Level: Glucose was estimated using diagnostic kits by GOD-POD method and the experiment was conducted following the manufacturer's instructions. • c) Oral Glucose Tolerance Test (OGTT): An oral glucose tolerance test was carried out in conscious rats. For this the rats was fasted overnight and glucose (2 g/kg b.w.) was given from 30% solution by oral gavage. […] for glucose. • d) Measurement of Plasma Insulin Level: Insulin was estimated using insulin ELISA kit (LINCO) and the experiment was conducted following the manufacturer's instructions. It is a solid phase sandwich enzyme-linked immunosorbent assay (ELISA), which uses a microtitre plate reader at 450 nm. Concentrations of insulin were calculated from plotted standard curves. All results were expressed as Mean±SEM. The intergroup variation was measured by one-way analysis of variance (ANOVA) followed by Tukey's test. Statistical significance was considered at P<0.05. The statistical analysis was done using the SPSS Statistical Software version 16 (SPSS Inc. 233 South Wacker Drive, 11th Floor Chicago, IL 60606-6412).

[4] = system: Streptozotocin (STZ) induced type 1 diabetes (T1DM); assay: Streptozotocin (STZ) induced type 1 diabetes: plasma glucose, body weight, food intake, water intake, urine output; settings: 10 IU/kg subcutaneous
Procedure: The objective of the study is to evaluate the pharmaceutical preparation in Type-1 Diabetes Mellitus (T1DM) and to compare the efficacy in comparison to standard hypoglycemic agents as insulin. Experimental model: Streptozotocin (STZ) induced type 1 diabetes (T1DM). Dose: STZ (45 mg/kg for rats) for T1DM Route: STZ was administered intraperitoneally (i.p.). Pharmaceutical preparation was administered peroral (p.o.) in three doses. Volume Administered: Rat—5 ml/kg Animals: Rats of Wistar or Sprague Dawley strain weighing from 150-200 g of either sex. The animals were housed under optimal laboratory conditions, maintained on a natural (12 h) light and (12 h) dark cycle and have free access to food and water ad libitum. Animals were acclimatized to laboratory conditions before the tests. […] Parameters to be evaluated: The following parameters were evaluated at confirmation of diabetes and after 28 days of treatment. • a) Body weight, water and food intake was monitored weekly. • b) Blood Glucose Level: Glucose was estimated using diagnostic kits by GOD-POD method and the experiment was conducted following the manufacturer's instructions. • c) Oral Glucose Tolerance Test (OGTT): An oral glucose tolerance test was carried out in conscious rats. For this the rats was fasted overnight and glucose (2 g/kg b.w.) was given from 30% solution by oral gavage. Tail blood samples was collected before glucose load and sequentially for every half an hour after glucose load upto 90 minutes and was immediately analysed for glucose. • d) Measurement of Plasma Insulin Level: Insulin was estimated using insulin ELISA kit (LINCO) and the experiment was conducted following the manufacturer's instructions. It is a solid phase sandwich enzyme-linked immunosorbent assay (ELISA), which uses a microtitre plate reader at 450 nm. Concentrations of insulin were calculated from plotted standard curves. All results were expressed as Mean±SEM. The intergroup variation was measured by one-way analysis of variance (ANOVA) followed by Tukey's test. Statistical significance was considered at P<0.05. The statistical analysis was done using the SPSS Statistical Software version 16 (SPSS Inc. 233 South Wacker Drive, 11th Floor Chicago, IL 60606-6412).

[5] = system: Streptozotocin (STZ) induced type 1 diabetes (T1DM); assay: Plasma insulin level (ELISA) in STZ induced type 1 diabetes; settings: 10 IU/kg subcutaneous
Procedure: The objective of the study is to evaluate the pharmaceutical preparation in Type-1 Diabetes Mellitus (T1DM) and to compare the efficacy in comparison to standard hypoglycemic agents as insulin. Experimental model: Streptozotocin (STZ) induced type 1 diabetes (T1DM). Dose: STZ (45 mg/kg for rats) for T1DM Route: STZ was administered intraperitoneally (i.p.). Pharmaceutical preparation was administered peroral (p.o.) in three doses. Animals: Rats of Wistar or Sprague Dawley strain weighing from 150-200 g of either sex. The animals were housed under optimal laboratory conditions, maintained on a natural (12 h) light and (12 h) dark cycle and have free access to food and water ad libitum. Animals were acclimatized to laboratory conditions before the tests. Study Design: Animals were divided into 8 groups of 10 animals in each group. • a) Group I: Control or vehicle treated group • b) Group II: Type 1 diabetic group • c) Group III: pharmaceutical preparation (90 mg/kg)+Diabetic animals • d) Group IV: pharmaceutical preparation (180 mg/kg)+Diabetic animals • e) Group V: pharmaceutical preparation (360 mg/kg)+Diabetic animals • f) Group VI: Satcol (60 mg/kg)+Diabetic animals • g) Group VII: pharmaceutical preparation (90 mg/kg)+Insulin (10IU)+Diabetic animals • h) Group VIII: Insulin (10IU)+Diabetic animals Drugs were administered for 28 days after confirmation of diabetes. Parameters to be evaluated: […]) Body weight, water and food intake was monitored weekly. • b) Blood Glucose Level: Glucose was estimated using diagnostic kits by GOD-POD method and the experiment was conducted following the manufacturer's instructions. • c) Oral Glucose Tolerance Test (OGTT): An oral glucose tolerance test was carried out in conscious rats. For this the rats was fasted overnight and glucose (2 g/kg b.w.) was given from 30% solution by oral gavage. Tail blood samples was collected before glucose load and sequentially for every half an hour after glucose load upto 90 minutes and was immediately analysed for glucose. • d) Measurement of Plasma Insulin Level: Insulin was estimated using insulin ELISA kit (LINCO) and the experiment was conducted following the manufacturer's instructions. It is a solid phase sandwich enzyme-linked immunosorbent assay (ELISA), which uses a microtitre plate reader at 450 nm. Concentrations of insulin were calculated from plotted standard curves. All results were expressed as Mean±SEM. The intergroup variation was measured by one-way analysis of variance (ANOVA) followed by Tukey's test. Statistical significance was considered at P<0.05. The statistical analysis was done using the SPSS Statistical Software version 16 (SPSS Inc. 233 South Wacker Drive, 11th Floor Chicago, IL 60606-6412).

CCc1ccc(CCOc2ccc(CC3SC(=O)NC3=O)cc2)nc1 (stereo not drawn) [Pio, Pioglitazone]
Glycosylated Hemoglobin ([1]; Day 1): 6.66 | Glycosylated Hemoglobin ([1]; Day 7): 10.78 | Glycosylated Hemoglobin ([1]; Day 14): 9.67 | Glycosylated Hemoglobin ([1]; Day 21): 8.44 | Glycosylated Hemoglobin ([1]; Day 28): 7.96 | Mean Plasma Glucose ([2]; Day 3): 144 mg/dL | Mean Plasma Glucose ([2]; Day 7): 149 mg/dL | Mean Plasma Glucose ([2]; Day 14): 141 mg/dL | Mean Plasma Glucose ([2]; Day 21): 132 mg/dL | Mean Plasma Glucose ([2]; Day 28): 126 mg/dL

Insulin
OGTT Mean Plasma Glucose ([3]; 0.5 hour): 389 ± 95.77 mg/dL | OGTT Mean Plasma Glucose ([3]; 2.0 hour): 315 ± 102.13 mg/dL | OGTT Mean Plasma Glucose ([3]; 4.0 hour): 311 ± 217.52 mg/dL | OGTT Mean Plasma Glucose ([3]; 8.0 hour): 233 ± 29.73 mg/dL | Mean Plasma Glucose ([4]; 6th Week): 226 ± 12.4 mg/dL | Mean Plasma Glucose ([4]; 10th Week): 233 ± 16.0 mg/dL | Food Intake ([4]; Day 1): 21 ± 0.66 gm | Mean Body Weight ([4]; Day 1): 278 ± 3.7 gm | Mean Plasma Glucose ([4]; Day 1): 352 ± 42.4 mg/dL | Urine Volume ([4]; Day 1): 9 ± 0.63 mL | Water Intake ([4]; Day 1): 9 ± 0.95 mL | Food Intake ([4]; Day 7): 23 ± 0.43 gm | Mean Body Weight ([4]; Day 7): 277 ± 4.4 gm | Mean Plasma Glucose ([4]; Day 7): 249 ± 5.7 mg/dL | Urine Volume ([4]; Day 7): 16 ± 1.91 mL | Water Intake ([4]; Day 7): 14 ± 0.85 mL | Food Intake ([4]; Day 14): 27 ± 0.58 gm | Mean Body Weight ([4]; Day 14): 280 ± 3.9 gm | Mean Plasma Glucose ([4]; Day 14): 222 ± 14.1 mg/dL | Water Intake ([4]; Day 14): 20 ± 0.86 mL | Food Intake ([4]; Day 21): 30 ± 0.56 gm | Mean Body Weight ([4]; Day 21): 279 ± 4.5 gm | Mean Plasma Glucose ([4]; Day 21): 233 ± 13.3 mg/dL | Urine Volume ([4]; Day 21): 26 ± 3.61 mL | Water Intake ([4]; Day 21): 25 ± 2.77 mL | Food Intake ([4]; Day 28): 34 ± 0.93 gm | Mean Body Weight ([4]; Day 28): 279 ± 4.9 gm | Mean Plasma Glucose ([4]; Day 28): 211 ± 8.6 mg/dL | Urine Volume ([4]; Day 28): 26 ± 4.43 mL | Water Intake ([4]; Day 28): 31 ± 3.08 mL | Percentage Change in plasma insulin ([5]; Day 1): 0% | Percentage Change in plasma insulin ([5]; Day 7): −42% | Percentage Change in plasma insulin ([5]; Day 14): −39% | Percentage Change in plasma insulin ([5]; Day 21): −37% | Percentage Change in plasma insulin ([5]; Day 28): −34%
